From ChEMBL document CHEMBL3639072, “Heterocyclic derivatives and their use in the treatment of neurological disorders” (2014)

Columns and labels:
Beta-secretase 2 = target: T1, Beta-secretase 2 (Homo sapiens, UniProt Q9Y5Z0)
T1 sequence (Q9Y5Z0 whole entry): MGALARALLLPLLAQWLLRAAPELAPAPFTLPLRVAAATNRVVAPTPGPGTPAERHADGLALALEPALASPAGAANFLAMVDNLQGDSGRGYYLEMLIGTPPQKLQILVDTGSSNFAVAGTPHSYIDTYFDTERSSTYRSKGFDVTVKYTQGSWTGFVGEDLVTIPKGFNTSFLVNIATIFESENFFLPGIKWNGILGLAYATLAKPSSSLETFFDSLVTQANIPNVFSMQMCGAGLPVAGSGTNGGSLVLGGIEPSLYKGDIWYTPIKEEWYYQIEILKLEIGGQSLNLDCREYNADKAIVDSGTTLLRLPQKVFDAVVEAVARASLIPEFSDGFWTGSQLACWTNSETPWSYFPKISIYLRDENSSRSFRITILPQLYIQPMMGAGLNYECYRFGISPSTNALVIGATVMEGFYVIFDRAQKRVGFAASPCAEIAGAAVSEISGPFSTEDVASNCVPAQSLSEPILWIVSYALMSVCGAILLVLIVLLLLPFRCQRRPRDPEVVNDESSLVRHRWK

Beta-secretase 1 = Beta-secretase 1 (Homo sapiens, UniProt P56817)
Beta-secretase 1, sequence (P56817 whole entry): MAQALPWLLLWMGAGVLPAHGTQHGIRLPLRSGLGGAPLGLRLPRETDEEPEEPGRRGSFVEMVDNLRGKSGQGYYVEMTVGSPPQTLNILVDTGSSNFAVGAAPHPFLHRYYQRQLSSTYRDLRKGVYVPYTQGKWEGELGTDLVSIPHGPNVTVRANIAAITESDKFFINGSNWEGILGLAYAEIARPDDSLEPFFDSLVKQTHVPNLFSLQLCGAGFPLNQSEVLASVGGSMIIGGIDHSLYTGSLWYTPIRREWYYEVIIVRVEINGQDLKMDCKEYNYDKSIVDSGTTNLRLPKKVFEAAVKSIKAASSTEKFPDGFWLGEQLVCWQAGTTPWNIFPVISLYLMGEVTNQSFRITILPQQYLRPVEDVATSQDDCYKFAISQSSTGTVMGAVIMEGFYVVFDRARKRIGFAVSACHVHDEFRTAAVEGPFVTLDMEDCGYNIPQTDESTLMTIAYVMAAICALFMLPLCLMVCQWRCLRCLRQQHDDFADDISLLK

Structure (SMILES)	IC50 (Beta-secretase 2) [µM]	IC50 (Beta-secretase 1) [µM]
Cc1cnc(C(=O)Nc2ccc(F)c([C@]3(C)CO[C@@](C)(C(F)(F)F)C(N)=N3)n2)c(C)n1	0.13	0.23
C[C@@]1(c2nc(NC(=O)c3ncc(OCCCF)nc3N)ccc2F)CO[C@@](C)(C(F)(F)F)C(N)=N1	1	0.2
